The series has as its system CCRIS mutagenicity, Ames/micronucleus/aberration tests. In words: CCRIS mutagenicity studies.
The mark [1] stands for this setting: Test System: AMES SALMONELLA TYPHIMURIUM, Strain/Indicator: TA98, Metabolic Activation: NONE, Method: STANDARD PLATE.
The mark [2] stands for this setting: Test System: AMES SALMONELLA TYPHIMURIUM, Strain/Indicator: TA100, Metabolic Activation: NONE, Method: STANDARD PLATE.
[3] abbreviates: Test System: AMES SALMONELLA TYPHIMURIUM, Strain/Indicator: TA1535, Metabolic Activation: NONE, Method: STANDARD PLATE.
The mark [4] stands for this setting: Test System: AMES SALMONELLA TYPHIMURIUM, Strain/Indicator: TA1537, Metabolic Activation: NONE, Method: STANDARD PLATE.

The values that follow come from PubChem BioAssay AID1259407 (Chemical Carcinogenesis Research Information System (CCRIS), 2018).

Calls of active or inactive are those of the source. The rule behind the calls is not given here.

Take `NCc1cccc(CN)c1`: the mutagenic call was “inactive; negative” (Test System: AMES SALMONELLA TYPHIMURIUM, Strain/Indicator: TA98, Metabolic Activation: HAMSTER, LIVER, S-9, AROCLOR 1254, Method: STANDARD PLATE); “inactive; negative” (Test System: AMES SALMONELLA TYPHIMURIUM, Strain/Indicator: TA98, Metabolic Activation: NONE, Method: PREINCUBATION); “inactive; negative” under setting [1]; “inactive; negative” (Test System: AMES SALMONELLA TYPHIMURIUM, Strain/Indicator: TA98, Metabolic Activation: RAT, LIVER, S-9, AROCLOR 1254, Method: STANDARD PLATE); “inactive; negative” (Test System: AMES SALMONELLA TYPHIMURIUM, Strain/Indicator: TA98, Metabolic Activation: RAT, LIVER, S-9, PCB, Method: PREINCUBATION); “inactive; negative” (Test System: AMES SALMONELLA TYPHIMURIUM, Strain/Indicator: TA98, Metabolic Activation: RAT, LIVER, S-9, PHENOBARBITAL AND BETA-NAPHTHOFLAVONE, Method: PREINCUBATION). Moreover, the mutagenic call reads like this: (Test System: AMES SALMONELLA TYPHIMURIUM, Strain/Indicator: TA100, Metabolic Activation: HAMSTER, LIVER, S-9, AROCLOR 1254, Method: STANDARD PLATE) “inactive; negative”; (Test System: AMES SALMONELLA TYPHIMURIUM, Strain/Indicator: TA100, Metabolic Activation: NONE, Method: PREINCUBATION) “inactive; negative”; under setting [2], “inactive; negative”; (Test System: AMES SALMONELLA TYPHIMURIUM, Strain/Indicator: TA100, Metabolic Activation: RAT, LIVER, S-9, AROCLOR 1254, Method: STANDARD PLATE) “inactive; negative”; (Test System: AMES SALMONELLA TYPHIMURIUM, Strain/Indicator: TA100, Metabolic Activation: RAT, LIVER, S-9, PCB, Method: PREINCUBATION) “inactive; negative”; (Test System: AMES SALMONELLA TYPHIMURIUM, Strain/Indicator: TA100, Metabolic Activation: RAT, LIVER, S-9, PHENOBARBITAL AND BETA-NAPHTHOFLAVONE, Method: PREINCUBATION) “inactive; negative”. Further, the mutagenic call reads like this: (Test System: AMES SALMONELLA TYPHIMURIUM, Strain/Indicator: TA102, Metabolic Activation: NONE, Method: PREINCUBATION) “inactive; negative”; (Test System: AMES SALMONELLA TYPHIMURIUM, Strain/Indicator: TA102, Metabolic Activation: RAT, LIVER, S-9, SODIUM PHENOBARBITAL AND 5,6-BENZOFLAVONE, Method: PREINCUBATION) “inactive; negative”; (Test System: AMES SALMONELLA TYPHIMURIUM, Strain/Indicator: TA104, Metabolic Activation: NONE, Method: PREINCUBATION) “inactive; negative”; (Test System: AMES SALMONELLA TYPHIMURIUM, Strain/Indicator: TA104, Metabolic Activation: RAT, LIVER, S-9, SODIUM PHENOBARBITAL AND 5,6-BENZOFLAVONE, Method: PREINCUBATION) “inactive; negative”; (Test System: AMES SALMONELLA TYPHIMURIUM, Strain/Indicator: TA1535, Metabolic Activation: HAMSTER, LIVER, S-9, AROCLOR 1254, Method: STANDARD PLATE) “inactive; negative”; (Test System: AMES SALMONELLA TYPHIMURIUM, Strain/Indicator: TA1535, Metabolic Activation: NONE, Method: PREINCUBATION) “inactive; negative”. Besides, the mutagenic call is, setting by setting: under setting [3], “inactive; negative”; (Test System: AMES SALMONELLA TYPHIMURIUM, Strain/Indicator: TA1535, Metabolic Activation: RAT, LIVER, S-9, AROCLOR 1254, Method: STANDARD PLATE) “inactive; negative”; (Test System: AMES SALMONELLA TYPHIMURIUM, Strain/Indicator: TA1535, Metabolic Activation: RAT, LIVER, S-9, PHENOBARBITAL AND BETA-NAPHTHOFLAVONE, Method: PREINCUBATION) “inactive; negative”; (Test System: AMES SALMONELLA TYPHIMURIUM, Strain/Indicator: TA1537, Metabolic Activation: HAMSTER, LIVER, S-9, AROCLOR 1254, Method: STANDARD PLATE) “inactive; negative”; (Test System: AMES SALMONELLA TYPHIMURIUM, Strain/Indicator: TA1537, Metabolic Activation: NONE, Method: PREINCUBATION) “inactive; negative”; under setting [4], “inactive; negative”. The mutagenic call is, setting by setting: (Test System: AMES SALMONELLA TYPHIMURIUM, Strain/Indicator: TA1537, Metabolic Activation: RAT, LIVER, S-9, AROCLOR 1254, Method: STANDARD PLATE) “inactive; negative”; (Test System: AMES SALMONELLA TYPHIMURIUM, Strain/Indicator: TA1537, Metabolic Activation: RAT, LIVER, S-9, PHENOBARBITAL AND BETA-NAPHTHOFLAVONE, Method: PREINCUBATION) “inactive; negative”; (Test System: AMES SALMONELLA TYPHIMURIUM, Strain/Indicator: TA1538, Metabolic Activation: HAMSTER, LIVER, S-9, AROCLOR 1254, Method: STANDARD PLATE) “inactive; negative”; (Test System: AMES SALMONELLA TYPHIMURIUM, Strain/Indicator: TA1538, Metabolic Activation: NONE, Method: STANDARD PLATE) “inactive; negative”; (Test System: AMES SALMONELLA TYPHIMURIUM, Strain/Indicator: TA1538, Metabolic Activation: RAT, LIVER, S-9, AROCLOR 1254, Method: STANDARD PLATE) “inactive; negative”; (Test System: E. COLI, Strain/Indicator: WP2UVRA/PKM101, Metabolic Activation: NONE, Method: PREINCUBATION) “inactive; negative”. Besides, the mutagenic call reads like this: (Test System: E. COLI, Strain/Indicator: WP2UVRA/PKM101, Metabolic Activation: RAT, LIVER, S-9, PHENOBARBITAL AND BETA-NAPHTHOFLAVONE, Method: PREINCUBATION) “inactive; negative”; (Test System: E. COLI, Strain/Indicator: WP2UVRA/PKM101, Metabolic Activation: RAT, LIVER, S-9, SODIUM PHENOBARBITAL AND 5,6-BENZOFLAVONE, Method: PREINCUBATION) “inactive; negative”; (Test System: E. COLI, Strain/Indicator: WP2UVRA, Metabolic Activation: NONE, Method: PREINCUBATION) “inactive; negative”; (Test System: E. COLI, Strain/Indicator: WP2UVRA, Metabolic Activation: RAT, LIVER, S-9, PHENOBARBITAL AND BETA-NAPHTHOFLAVONE, Method: PREINCUBATION) “inactive; negative”; (Test System: E. COLI, Strain/Indicator: WP2UVRA, Metabolic Activation: RAT, LIVER, S-9, SODIUM PHENOBARBITAL AND 5,6-BENZOFLAVONE, Method: PREINCUBATION) “inactive; negative”; (Test System: MOUSE LYMPHOMA, Strain/Indicator: L5178Y (TK+/TK-), Metabolic Activation: NONE, Method: SUSPENSION/PLATE) “inactive; negative. reevaluation of results: negative”. For the same compound, the mutagenic call (Test System: MOUSE LYMPHOMA, Strain/Indicator: L5178Y (TK+/TK-), Metabolic Activation: RAT, LIVER, S-9, AROCLOR 1254, Method: SUSPENSION/PLATE) was “inactive; negative. reevaluation of results: negative”.

Regarding `Nc1snc2c(Cl)cc(Cl)cc12`, the mutagenic call is, setting by setting: under setting [1], “inactive; negative”; (Test System: AMES SALMONELLA TYPHIMURIUM, Strain/Indicator: TA98, Metabolic Activation: S-9, Method: STANDARD PLATE) “inactive; negative”; under setting [2], “inactive; negative”; (Test System: AMES SALMONELLA TYPHIMURIUM, Strain/Indicator: TA100, Metabolic Activation: S-9, Method: STANDARD PLATE) “active; positive”; under setting [3], “inactive; negative”; (Test System: AMES SALMONELLA TYPHIMURIUM, Strain/Indicator: TA1535, Metabolic Activation: S-9, Method: STANDARD PLATE) “inactive; negative”. For the same compound, the mutagenic call by setting is: under setting [4], “inactive; negative”; (Test System: AMES SALMONELLA TYPHIMURIUM, Strain/Indicator: TA1537, Metabolic Activation: S-9, Method: STANDARD PLATE) “active; positive”.

For `COC(COC(N)=O)C1=C(N2CC2)C(=O)C(C)=C(N2CC2)C1=O` (stereo not given), the mutagenic call is, setting by setting: under setting [1], “active; positive”; under setting [2], “active; positive”; under setting [4], “active; positive”; (Test System: CHINESE HAMSTER V-79, Strain/Indicator: V-79/6-THIOGUANINE, Metabolic Activation: NONE, Method: FLASK ASSAY) “active; positive”; (Test System: E. COLI, Strain/Indicator: WP2 (HCR), Metabolic Activation: NONE, Method: STANDARD PLATE) “active; positive”.
